System: ATPase activity endogenous to L929 cell lysate
Assay: Detergent inhibition of ATPase endogenous to L929 cell lysate (ATP remaining by luciferase luminescence, 22° C.)
Format: biochemical
Parameters: key to Relative ATPase Activity, slope det/slope lysate: slope with detergent / slope without; ≥1.0 = 100% activity, 0.5 = 50%
Procedure: Three separate detergents in each of four detergent classes were tested: anionic [SDS (Sodium dodecyl sulfate), Bioterge (an α olefin sulfate), and sodium deoxycholate], nonionic [TRITON X-100, BigCHAP (N,N-bis(3-D-Gluconamidopropyl)cholamide) and THESIT (polyethylene glycol 400 dodecyl ether, Fluka, #88315)], cationic [BDDABr (Benzyldimethyldodecylammonium bromide), CTAB (Cetyltrimethylammonium bromide), and DTAB (dodecyltrimethylammonium bromide)] and zwitterionic [CHAPS (3[(3-Cholamidopropyl)dimethylammonio]propanesulfonic acid), CHAPSO (3-([3-Cholamidopropyl]dimethylammonio)-2-hydroxy-1-propanesulfonate), and Sulfobetaine 3-10 ([…]-N,N-dimethyl-3-ammonio-1-propanesulfonate)]. Detergents were obtained from Sigma, Fluka and Aldrich.
L929 cells (ATCC CCL-1; 1.5×10^5 cells/ml) in F12/DMEM (Hyclone, SH30023) containing 10% horse serum (Hyclone, SH30074) were frozen and thawed for four cycles to create a cell lysate. Then 50 μl of stock detergent solutions [10%, 5.0%, 1.0%, and 0.5% (w/v)] were separately added to 450 μl cell lysate, creating a final detergent concentration in the cell lysate sample of 1.0%, 0.5%, 0.1%, and 0.05%, respectively (these percentage values are those used in Tables D and E herein below). Control samples contained either lysate only or 1.0 μM ATP in 15 mM HEPES buffer (pH 7.5). All samples were incubated at 22° C. (room temperature) for the duration of the experiment.
At various timepoints, 20 μl from each sample/detergent mixture was added to a 96-well luminometer plate in triplicate, and then 100 μl of a solution (“luciferase-luciferin” or “L/L reagent”) containing 25 mM HEPES buffer (pH 7.5), 40 μg luciferase enzyme LucPpe2m146 (Promega, E140), 100 μM luciferin (Promega), and 10 mM MgSO4 was added to each well. The L/L reagent was stored at 4° C. for the duration of the experiment and then allowed to reach ambient temperature just before assaying. After mixing the contents of the plate, light output was measured with a Dynex MLX microtiter plate luminometer (Chantilly, Va.), 0.5 second reads per well with the first measurement taken five minutes after the detergent solution was combined with the sample. The average relative light units and the timepoint at which it was measured (rlu; Table D) and percent of remaining luciferase activity at the timepoint (Table E) are reported; controls were run with each set of experimental conditions as indicated. The cationic and anionic detergents were assayed on one day with one set of controls. The zwitterionic and nonionic detergents were assayed on a separate day with a separate set of controls. The DTAB at 0.5% was assayed on both days (1 and 2).
The experiment was performed as detailed in Example 1. The average relative light unit values and the percent of ATP remaining values are listed below in Table F and G respectively.
The log of the percent of ATP remaining after original timepoint values from Table E and Table G were plotted on the y axis against time (in minutes) on the x axis. The slope of the line generated by these values in the presence of detergent was divided by the slope of the line generated by the values in the absence of detergent (lysate control) resulting in the Relative ATPase Activity values listed below in Table H.
A relative activity value of 1.0 or greater indicates 100% cellular ATPase activity at the concentration of detergent tested. A relative activity value of 0.5 indicates a two-fold (or 50%) decrease in the level of cellular ATPase activity at the concentration of detergent tested when compared to the ATPase activity level in the absence of the detergent. A relative activity value of 0.2 indicates a five-fold (or 80%) decrease in the level of cellular ATPase activity at the concentration of detergent tested when compared to the ATPase activity level in the absence of the detergent.

C[C@H](CCC(=O)NCCC[N+](C)(C)CC(O)CS(=O)(=O)[O-])[C@H]1CC[C@H]2[C@@H]3[C@H](O)C[C@@H]4C[C@H](O)CC[C@]4(C)[C@H]3C[C@H](O)[C@]12C (stereo partly drawn) [CHAPSO, 3-([3-Cholamidopropyl]dimethylammonio)-2-hydroxy-1-propanesulfonate]
Average Relative Light Unit Values (0.05% detergent, 5 min): 6396.53 rlu | Percent ATP Remaining (0.05% detergent, 5 min): 100% | Average Relative Light Unit Values (0.05% detergent, 75 min): 2424.54 rlu | Percent ATP Remaining (0.05% detergent, 75 min): 37.9% | Average Relative Light Unit Values (0.05% detergent, 169 min): 1124.83 rlu | Percent ATP Remaining (0.05% detergent, 169 min): 17.6% | Average Relative Light Unit Values (0.05% detergent, 222 min): 480.09 rlu | Percent ATP Remaining (0.05% detergent, 222 min): 7.5% | Average Relative Light Unit Values (0.05% detergent, 260 min): 238.80 rlu | Percent ATP Remaining (0.05% detergent, 260 min): 3.7% | Relative ATPase Activity, slope det/slope lysate (0.05 percent detergent): 1.080 | Slope (log percent ATP remaining vs time in minutes) (0.05 percent detergent): −0.0057 | Average Relative Light Unit Values (0.1% detergent, 5 min): 6549.85 rlu | Percent ATP Remaining (0.1% detergent, 5 min): 100% | Average Relative Light Unit Values (0.1% detergent, 75 min): 2584.56 rlu | Percent ATP Remaining (0.1% detergent, 75 min): 39.5% | Average Relative Light Unit Values (0.1% detergent, 169 min): 1210.14 rlu | Percent ATP Remaining (0.1% detergent, 169 min): 18.5% | Average Relative Light Unit Values (0.1% detergent, 222 min): 558.69 rlu | Percent ATP Remaining (0.1% detergent, 222 min): 8.5% | Average Relative Light Unit Values (0.1% detergent, 260 min): 280.84 rlu | Percent ATP Remaining (0.1% detergent, 260 min): 4.3% | Relative ATPase Activity, slope det/slope lysate (0.10 percent detergent): 1.030 | Slope (log percent ATP remaining vs time in minutes) (0.10 percent detergent): −0.0054 | Average Relative Light Unit Values (0.5% detergent, 5 min): 7422.26 rlu | Percent ATP Remaining (0.5% detergent, 5 min): 100% | Average Relative Light Unit Values (0.5% detergent, 75 min): 4089.32 rlu | Percent ATP Remaining (0.5% detergent, 75 min): 55.1% | Average Relative Light Unit Values (0.5% detergent, 169 min): 2581.01 rlu | Percent ATP Remaining (0.5% detergent, 169 min): 34.8% | Average Relative Light Unit Values (0.5% detergent, 222 min): 1460.54 rlu | Percent ATP Remaining (0.5% detergent, 222 min): 19.7% | Average Relative Light Unit Values (0.5% detergent, 260 min): 923.81 rlu | Percent ATP Remaining (0.5% detergent, 260 min): 12.4% | Relative ATPase Activity, slope det/slope lysate (0.50 percent detergent): 0.685 | Slope (log percent ATP remaining vs time in minutes) (0.50 percent detergent): −0.0036 | Average Relative Light Unit Values (1.0% detergent, 5 min): 7160.63 rlu | Percent ATP Remaining (1.0% detergent, 5 min): 100% | Average Relative Light Unit Values (1.0% detergent, 75 min): 3803.84 rlu | Percent ATP Remaining (1.0% detergent, 75 min): 53.1% | Average Relative Light Unit Values (1.0% detergent, 169 min): 2376.31 rlu | Percent ATP Remaining (1.0% detergent, 169 min): 33.2% | Average Relative Light Unit Values (1.0% detergent, 222 min): 1332.97 rlu | Percent ATP Remaining (1.0% detergent, 222 min): 18.6% | Average Relative Light Unit Values (1.0% detergent, 260 min): 840.57 rlu | Percent ATP Remaining (1.0% detergent, 260 min): 11.7% | Relative ATPase Activity, slope det/slope lysate (1.00 percent detergent): 0.703 | Slope (log percent ATP remaining vs time in minutes) (1.00 percent detergent): −0.0037

TRITON X-100
Average Relative Light Unit Values (0.05% detergent, 5 min): 6160.71 rlu | Percent ATP Remaining (0.05% detergent, 5 min): 100% | Average Relative Light Unit Values (0.05% detergent, 75 min): 1964.17 rlu | Percent ATP Remaining (0.05% detergent, 75 min): 31.9% | Average Relative Light Unit Values (0.05% detergent, 169 min): 822.48 rlu | Percent ATP Remaining (0.05% detergent, 169 min): 13.4% | Average Relative Light Unit Values (0.05% detergent, 222 min): 303.73 rlu | Percent ATP Remaining (0.05% detergent, 222 min): 4.9% | Average Relative Light Unit Values (0.05% detergent, 260 min): 147.48 rlu | Percent ATP Remaining (0.05% detergent, 260 min): 2.4% | Relative ATPase Activity, slope det/slope lysate (0.05 percent detergent): 1.228 | Slope (log percent ATP remaining vs time in minutes) (0.05 percent detergent): −0.0065 | Average Relative Light Unit Values (0.1% detergent, 5 min): 6837.20 rlu | Percent ATP Remaining (0.1% detergent, 5 min): 100% | Average Relative Light Unit Values (0.1% detergent, 75 min): 3004.57 rlu | Percent ATP Remaining (0.1% detergent, 75 min): 43.9% | Average Relative Light Unit Values (0.1% detergent, 169 min): 1643.05 rlu | Percent ATP Remaining (0.1% detergent, 169 min): 24.0% | Average Relative Light Unit Values (0.1% detergent, 222 min): 801.38 rlu | Percent ATP Remaining (0.1% detergent, 222 min): 11.7% | Average Relative Light Unit Values (0.1% detergent, 260 min): 448.93 rlu | Percent ATP Remaining (0.1% detergent, 260 min): 6.6% | Relative ATPase Activity, slope det/slope lysate (0.10 percent detergent): 0.889 | Slope (log percent ATP remaining vs time in minutes) (0.10 percent detergent): −0.0047 | Average Relative Light Unit Values (0.5% detergent, 5 min): 6106.61 rlu | Percent ATP Remaining (0.5% detergent, 5 min): 100% | Average Relative Light Unit Values (0.5% detergent, 75 min): 1880.98 rlu | Percent ATP Remaining (0.5% detergent, 75 min): 30.8% | Average Relative Light Unit Values (0.5% detergent, 169 min): 871.01 rlu | Percent ATP Remaining (0.5% detergent, 169 min): 14.3% | Average Relative Light Unit Values (0.5% detergent, 222 min): 378.58 rlu | Percent ATP Remaining (0.5% detergent, 222 min): 6.2% | Average Relative Light Unit Values (0.5% detergent, 260 min): 195.42 rlu | Percent ATP Remaining (0.5% detergent, 260 min): 3.2% | Relative ATPase Activity, slope det/slope lysate (0.50 percent detergent): 1.117 | Slope (log percent ATP remaining vs time in minutes) (0.50 percent detergent): −0.0059 | Average Relative Light Unit Values (1.0% detergent, 5 min): 6073.78 rlu | Percent ATP Remaining (1.0% detergent, 5 min): 100% | Average Relative Light Unit Values (1.0% detergent, 75 min): 1774.10 rlu | Percent ATP Remaining (1.0% detergent, 75 min): 29.2% | Average Relative Light Unit Values (1.0% detergent, 169 min): 839.14 rlu | Percent ATP Remaining (1.0% detergent, 169 min): 13.8% | Average Relative Light Unit Values (1.0% detergent, 222 min): 331.95 rlu | Percent ATP Remaining (1.0% detergent, 222 min): 5.5% | Average Relative Light Unit Values (1.0% detergent, 260 min): 174.89 rlu | Percent ATP Remaining (1.0% detergent, 260 min): 2.9% | Relative ATPase Activity, slope det/slope lysate (1.00 percent detergent): 1.152 | Slope (log percent ATP remaining vs time in minutes) (1.00 percent detergent): −0.0061

Reference: patent publication US20030104507A1, “Method for detection of ATP” (priority 2001, published 2003)
